The results in this text go back to patent publication US20230279000A1, “PYRIDOPYRIMIDINE DERIVATIVES USEFUL IN MODULATION OF AHR SIGNALLING” (JAGUAHR THERAPEUTICS PTE LTD, priority 2020, published 2023).

The structures appear in SMILES notation. Where a name gives a salt, the structure may show the parent alone.

For assay [1], the target named is T1, AhR (Homo sapiens, UniProt P35869).
T1 construct: PBMCs were isolated from human peripheral blood using Lymphoprep; endogenous in cells
T1 sequence (P35869 11-848): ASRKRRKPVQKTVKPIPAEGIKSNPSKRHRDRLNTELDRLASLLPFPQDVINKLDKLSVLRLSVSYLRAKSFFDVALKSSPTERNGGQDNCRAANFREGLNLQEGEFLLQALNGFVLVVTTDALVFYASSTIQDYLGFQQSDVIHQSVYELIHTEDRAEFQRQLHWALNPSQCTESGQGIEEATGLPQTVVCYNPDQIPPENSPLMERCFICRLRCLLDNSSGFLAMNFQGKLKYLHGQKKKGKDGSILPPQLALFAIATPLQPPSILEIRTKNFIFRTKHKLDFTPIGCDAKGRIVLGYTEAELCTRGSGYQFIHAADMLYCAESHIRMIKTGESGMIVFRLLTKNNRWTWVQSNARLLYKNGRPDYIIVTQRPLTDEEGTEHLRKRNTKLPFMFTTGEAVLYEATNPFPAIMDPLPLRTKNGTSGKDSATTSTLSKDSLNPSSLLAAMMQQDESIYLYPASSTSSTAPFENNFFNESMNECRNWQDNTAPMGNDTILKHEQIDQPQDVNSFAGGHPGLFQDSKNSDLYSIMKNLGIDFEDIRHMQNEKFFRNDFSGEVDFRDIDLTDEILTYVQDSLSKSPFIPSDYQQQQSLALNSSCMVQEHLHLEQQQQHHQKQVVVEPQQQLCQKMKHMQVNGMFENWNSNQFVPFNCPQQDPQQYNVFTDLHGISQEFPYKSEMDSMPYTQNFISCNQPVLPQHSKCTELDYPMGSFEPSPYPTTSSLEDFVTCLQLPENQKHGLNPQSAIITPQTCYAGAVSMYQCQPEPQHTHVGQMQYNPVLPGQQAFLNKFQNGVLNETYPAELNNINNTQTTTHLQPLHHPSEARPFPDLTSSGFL
Description: AhR antagonism in U937 cells (Promega P450-Glo assay). Type of assay: cell-based. The note with it: inhibition of 4.5 nM VAF347 agonist response, CYP1A1 activity (Luciferin-CEE) after 24 hrs, arithmetic mean of two or more tests, read-out: U937 Assay (pIC50) (converted). The procedure:
(§1) Examples were tested in selected biological assays two or more times. Data are reported as the arithmetic mean of the pIC50 (-log10IC50) values, where IC50 is defined as the concentration of compound producing a 50% inhibition of the agonist response. In the case of the U937 assay, VAF347 was used as the agonist; in the peripheral blood mononuclear cell (PBMC) assay the effects of the test compounds are assessed against endogenously produced AhR agonists generated following PBMC activation.
In Vitro Assay 1: AhR Antagonism in U937 Cells (Promega P450-Glo™ Assay)
AhR antagonism was assessed in U937 cells (myeloid lineage cell line derived from a human histiocytic lymphoma). Ligand binds the AhR in the cytoplasm, and the AhR-ligand complex translocates to the nucleus and forms a heterodimer with AhR nuclear translocator (Arnt). This complex binds the xenobiotic response element (XRE) in the 5′ upstream region of the CYP1A1 promoter, enhancing CYP1A1 expression. CYP1A1 activity is subsequently determined by assessing the conversion of Luciferin-CEE to luciferin, which in turn reacts with luciferase to produce light. The amount of light produced is directly proportional to cytochrome P450 activity.
U937 cells in Ultraculture serum free media (Lonza) were plated at 100,000 cells per well in a round bottom 96 well tissue culture plate. Seven concentrations of test compound (final [DMSO] 1%) were added and incubated for 10 minutes before the addition of 4.5 nM VAF347. The plates were then placed in an incubator at 37° C., ≥ 85% humidity, 5% CO2 for 24 hrs. After aspiration of the supernatant the CYP1A1 substrate Luciferin-CEE ([Final] 83 µM) was added and incubated for 3 hrs before the reaction was stopped by adding luciferin detection reagent and luminescence was read after 20 minutes.

For assay [2], the target named is T1, AhR. The experiment in a line: AhR antagonism in human PBMCs - inhibition of interleukin-22 (IL-22) release. The class given is cell-based. As to conditions: human PBMCs activated with CD3/CD28 agonist; IL-22 release after 72 hrs, against endogenously produced AhR agonists; arithmetic mean of two or more tests; read-out: PBMC Assay (pIC50) (converted). The procedure:
as §1
In Vitro Assay 2: AhR Antagonism in Human Peripheral Blood Mononuclear Cells (PBMCS) -Inhibition of Interleukin-22 (IL-22) Release
PBMCs were isolated from human peripheral blood using Lymphoprep™ and diluted to 1 × 10^6 cells per ml in RPMI media containing 10% foetal bovine serum, 1% penicillin-streptomycin and 1% non-essential amino acids. PBMCs were subsequently activated with 1 µl per 100,000 cells of a CD3/CD28 agonist mixture (human T Cell TransAct™(Miltenyi Biotec)) and then plated at 100,000 cells per well in a round bottom 96 well tissue culture plate. One hour after stimulation seven concentrations of each test compound or vehicle (final [DMSO] 0.2%) were added. The plates were then placed in an incubator at 37° C., ≥ 85% humidity, 5% CO2 for 72 hrs before the media was removed and stored at -20° C. until cytokine analysis. IL-22 was measured using human IL-22 DuoSet ELISA (R&D systems) according to the manufacturer’s instructions.

As for `CCN1CCc2nc(-c3cncc(F)c3)nc(NCCc3c[nH]c4cc(OC)ccc34)c2CC1` [Example 15, 7-ethyl-2-(5-fluoropyridin-3-yl)-N-[2-(6-methoxy-1H-indol-3-yl)ethyl]-5H,6H,7H,8H,9H-pyrimido[4,5-d]azepin-4-amine], the IC50 at AhR [1] is 158 nM; at AhR [2] it was 631 nM.

`COc1ccc2[nH]c(C)c(CCNc3nc(-c4cncc(F)c4)nc4c3CCNC4)c2c1` [Example 14, 2-(5-Fluoropyridin-3-yl)-4-{[2-(5-Methoxy-2-Methyl-1H-Indol-3-yl)Ethyl]Amino}-5H,6H,7H,8H-Pyrido[3,4-d]Pyrimidin-7-ium Chloride]: the IC50 is 100 nM on AhR [1] and 631 nM at AhR [2].

For the molecule `COc1ccc2c(CCNc3nc(-c4cncc(F)c4)nc4c3CCNCC4)c[nH]c2c1` [Example 16, 2-(5-fluoropyridin-3-yl)-N-[2-(6-methoxy-1H-indol-3-yl)ethyl]-5H,6H,7H,8H,9H-pyrimido[4,5-d]azepin-4-amine], the IC50 is 316 nM at AhR [1] and 200 nM at AhR [2].

For the molecule `FC(F)(F)c1cncc(-c2nc3c(c(NCCc4c[nH]c5ccccc45)n2)CCNC3)c1` [Example 10, N-[2-(1H-indol-3-yl)ethyl]-2-[5-(trifluoromethyl)pyridin-3-yl]-5H,6H,7H,8H-pyrido[3,4-d]pyrimidin-4-amine], the IC50 at AhR [1] was 25.1 nM; on AhR [2] it was 794 nM.

For `COc1ccc2c(CCNc3nc(-c4cncc(F)c4)nc4c3CCNC4)c[nH]c2c1` [Example 1, 2-(5-fluoropyridin-3-yl)-N-[2-(6-methoxy-1H-indol-3-yl)ethyl]-5H,6H,7H,8H-pyrido[3,4-d]pyrimidin-4-amine], the IC50 at AhR [1] and on AhR [2] was 126 nM in each case.

Regarding `COc1ccc2c(CCNc3nc(-c4cncc(F)c4)nc4c3CNC4)c[nH]c2c1` [Example 5, 2-(5-fluoropyridin-3-yl)-N-[2-(6-methoxy-1H-indol-3-yl)ethyl]-5H,6H,7H-pyrrolo[3,4-d]pyrimidin-4-amine], the values for the IC50 on AhR [1] and on AhR [2] were 200 nM and 398 nM, respectively.

`COc1ccc2c(CCOc3nc(-c4cncc(F)c4)nc4c3CCNC4)c[nH]c2c1` [Example 17, 3-(2-{[2-(5-Fluoropyridin-3-yl)-5H,6H,7H,8H-Pyrido[3,4-d]Pyrimidin-4-yl]Oxy}Ethyl)-6-Methoxy-1H-Indole Hydrochloride]: the IC50 on AhR [1] was 50.1 nM; at AhR [2], 25.1 nM.

In the case of `COc1cncc(-c2nc3c(c(NCCc4c[nH]c5ccccc45)n2)CCNC3)c1` [Example 9, N-[2-(1H-indol-3-yl)ethyl]-2-(5-methoxypyridin-3-yl)-5H,6H,7H,8H-pyrido[3,4-d]pyrimidin-4-amine], the IC50 at AhR [1] is 20 nM; on AhR [2] it was 794 nM.

Take `Fc1cncc(-c2nc3c(c(NCCc4c(C(F)(F)F)[nH]c5ccccc45)n2)CCNC3)c1` [Example 18, 2-(5-Fluoropyridin-3-yl)-4-({2-[2-(Trifluoromethyl)-1H-Indol-3-yl]Ethyl}Amino)-5H,6H,7H,8H-Pyrido[3,4-d]Pyrimidin-7-ium Chloride]: the IC50 on AhR [1] is 20 nM; at AhR [2] it was 316 nM.
